The results in this text go back to a melting point compilation (Tetko et al.; mined from patent text by program, amines drawn as free bases though some values may be those of a salt).

By melting point is commonly meant the temperature, or range, at which the solid turns liquid. Compound `CC(C)(C)C(=O)c1ccc(CSCc2ccc(C(=O)C(C)(C)C)cc2)cc1` returned a melting point of 64 to 65 °C.
The same measure for `C1=C(CC2=NCCN2)CCc2ccccc21`: 221 to 223 °C; for `Cc1cc(C)cc(C(=O)N2CCN(C(=O)CNC3CCN(C(=O)c4ccccc4)CC3)C(c3ccc(Cl)c(Cl)c3)C2)c1` (racemic): 94 to 96 °C; for `CC1(C)SC2C(NC(=O)Cc3ccccc3)C(=O)N2C1c1nnn[nH]1` (stereo not drawn): 168 to 170 °C.
`CCCCOC1C=CC(=O)N1S(=O)(=O)c1ccc(OC)cc1` (stereo not drawn) yielded a melting point of 65 to 66 °C.
The same measure for `Fc1ccc2c(c1)nc(Cl)c1nnc(C(F)(F)F)n12`: 135 to 138 °C.
`CCCCCCCCCCCCCCCCS(=O)(=O)Nc1cccc(C(=O)CBr)c1` registered a melting point of 92 to 95 °C.
The figure for `COc1ccc(-c2nn(Cc3ccc(Cl)cc3)c(=S)cc2-c2ccncc2)cc1` is 144 to 145 °C; for `O=c1oc2ccccc2n1Sc1ccc(Cl)cc1` it is 134 to 137 °C.
Regarding `Cn1c2cc(Cl)cc(Cl)c2c2cc(C(=O)O)sc21`, the melting point is 278 to 281 °C.
`C[C@@H]1[C@H](c2ccccc2)[C@]1(NS(=O)(=O)c1ccc(-c2cc(C(C)(F)F)on2)s1)C(=O)O` showed a melting point of 177 to 178 °C.
The same measure for `O=C(Nc1cc(-c2cccc(-c3ccccc3)c2)[nH]n1)C1Cc2ccccc2C1`: 108 to 110 °C.
The same measure for `COc1ccc(C(=O)Nc2ccccc2)cc1NC(=S)Nc1cc(Cl)cc(Cl)c1`: 195 to 197 °C.
The same measure for `CN(C(=O)c1ccc2nonc2c1)C1CCCOC1` (stereo not drawn): 134 to 135 °C; for `O=C(NCCc1ccccc1)C1=C(C(=O)Nc2cc(OC3CCCC3)c(Cl)cc2F)CCCC1`: 165 to 166 °C; for `CC(C)(C)c1cc(SC2CC(=O)OC2=O)cc(C(C)(C)C)c1O` (stereo not drawn): 92 to 93 °C.
`O=C(O)c1cn(C2CC2)c2c(C(F)(F)F)c(N3CCC(c4ccccn4)C3)c(F)cc2c1=O` (stereo not drawn) had a melting point of 210 to 212 °C.
The same measure for `CC(C)NCCCOc1ccc(O)cc1`: 92 to 100 °C.
The same measure for `CCc1nc(NC)sc1-c1ccncc1`: 146 to 149 °C; for `O=[N+]([O-])c1cccc(/C=C/c2nc(C3CCCCCC3)cs2)c1`: 60 °C.
The figure for `CC1=N/C(=C\c2cccnc2)C(=O)O1` is 173 °C; for `CCn1cc(Cl)nc(S)c1=O` it is 142 to 144 °C.
Compound `Cn1cc(C2=C(c3c4n(c5ccccc35)CCN(C(=O)OC(C)(C)C)C4)C(=O)OC2=O)c2ccccc21` gave a melting point of 125 to 127 °C.
The same measure for `CN1Cc2c(C(N)=NO)ncn2-c2cccc(Cl)c2C1=O`: above 250 °C; for `CC(C)[C@H](NC(=O)OCc1ccccn1)C(=O)N[C@@H](Cc1ccccc1)[C@@H](O)C[C@H](Cc1ccccc1)NC(=O)OCc1cncs1`: 176 to 177 °C; for `CC(C)C(C)(C#N)N1C(=O)c2cccc(O)c2C1=O` (stereo not drawn): 110 to 111 °C.
In turn, `COc1ccc(C(=O)c2ccc(F)cc2F)c(Cl)c1Cl` yielded a melting point of 139 to 141 °C.
The same measure for `CCN1C(=O)CC(C(=O)O)C1c1c(Cl)cccc1Cl` (stereo not drawn): 195 to 197 °C; for `COc1c(Cl)ccc(-c2cc(N)c(Cl)c(C(=O)NO)n2)c1F`: 166 to 169 °C.
The figure for `O=C(COc1ccc(CN2CCOCC2)cc1)N1CCN(c2ccc(N3C[C@H](CNC(=S)C4CC4)OC3=O)cc2F)CC1` is 138 to 141 °C; for `CCCCc1nn2c(c1Cc1ccc(C(=O)O)cc1)CCCC2` it is 148 to 150 °C.
Compound `CCOC(=O)NN=C(c1ccccc1)c1ccncc1` gave a melting point of 189 °C.
As to `Nc1cc(SC2=CCCCC2)ccc1[N+](=O)[O-]`, the melting point fell in the range of 100 to 102 °C.
The same measure for `Cc1ccc(CN(CCCC(N)=O)Cc2ccc(C)cc2)cc1`: 85 to 86 °C; for `CCOC(=O)NCCc1cccc(C(=O)C=CN(C)C)c1`: 45 to 50 °C; for `Cc1ccc(C2CCCN2S(=O)(=O)c2ccc(F)cc2)cc1` (racemic): 112 °C.
The same measure for `Cc1nc(CC(C)C)c(CN)c(-c2ccc(Cl)cc2)c1C(=O)OC(C)(C)C`: 81 to 83 °C; for `ClCc1nn(-c2ccccc2)c2c1CCCC2`: 100 °C; for `O=C(O)C(=C1SCCCS1)c1cccc(C(F)(F)F)c1`: 165 to 166 °C.
The same measure for `N#Cc1ccc(C(F)(F)F)cc1NN=Nc1ccccc1`: 139 to 141 °C; for `CO[C@]12C[C@@H](CN3CCC(O)(c4ccc(Cl)cc4)CC3)CN(C)[C@@H]1Cc1c[nH]c3cccc2c13`: 144 to 148 °C; for `O=C(NO)c1ccc2c(c1)CN(C(=O)c1ccc3ncccc3c1)C2`: 208 to 210 °C.
In turn, `CCCCCCCCCCCCCCCCCCOc1ccc(NC(=O)OC(C)(C)C)cc1` gave a melting point of 66 to 67 °C.
The figure for `CC(C)N(Cc1nc(-c2ncn3c2CN(C)C(=O)c2c(Cl)cccc2-3)no1)C(C)C` is 58 to 63 °C; for `CCOC(=O)c1nnc2n1-c1sc(Cl)cc1C(c1ccccc1[N+](=O)[O-])=NC2` it is 143 to 145 °C.
The same measure for `COC(=O)NC(=O)NS(=O)(=O)c1ccc([N+](=O)[O-])cc1`: 150 to 158 °C; for `O=c1[nH]c2ccc(C=C3c4ccc(F)cc4CCc4cc(F)ccc43)cc2[nH]1`: 257 °C; for `O=C(CC1CCCC1)c1c(-c2ccc3cc(O)ccc3c2)oc2ccccc12`: 189 to 190 °C.
The same measure for `CC(C(=O)O)c1ccc([N+](=O)[O-])c(CC(=O)O)c1` (stereo not drawn): 169 to 171 °C; for `CC1(C)CC(=O)c2c(NCc3ccccc3)sc(-c3cc[nH]n3)c2C1`: 204 to 206 °C; for `O=S(=O)(c1ccc(Oc2ccccc2)cc1)N1CC1`: 136 to 138 °C.
The compound `Cc1cccc(C)c1NC(=O)c1cc(CO)on1` yielded a melting point of 95 °C.
The figure for `Cc1nc2cc(S(=O)(=O)n3c(CCCC(=O)O)cc4nc(Cl)ccc43)ccc2s1` is 173 °C.
Consider `CN1c2ccc(-c3ccc4ccccc4c3)cc2Sc2cc(-c3ccc4ccccc4c3)ccc21`, for which the melting point is 276 to 281 °C.
The same measure for `CCOC(=O)N1CCn2c(nc(-c3ccncn3)cc2=O)C(CC)C1` (racemic): 160 to 162 °C; for `CCCCOC(=O)NS(=O)(=O)CCc1cc(OCCCC)nn1Cc1ccc(Cl)cc1Cl`: 108 to 111 °C; for `COc1cc(C(=O)N2Cc3ccccc3Cc3ccccc32)ccc1NC(=O)c1ccccc1C`: 209 to 210 °C.
The figure for `c1cc(-c2ccc(N3CCNCC3)nc2)nc(Nc2ccc3cc[nH]c3c2)n1` is 201 to 203 °C; for `COc1ccn2nc(-c3ccccc3)c(-c3ccc(=O)n(C4CCOC4)n3)c2c1` (stereo not drawn) it is 207 to 208 °C; for `CCC(CC)c1ccc(Cl)c2nc(Nc3cc(Cl)cc(Cl)c3)n(CCCCO)c12` it is 208 to 210 °C.
The figure for `CS(=O)(=O)Nn1c(=O)[nH]c2cc([N+](=O)[O-])c(-n3cccc3)cc2c1=O` is 243 to 250 °C; for `C#CC1(Oc2ccc(F)cc2N)CCN(C(=O)Oc2ccccc2)CC1` it is 125 to 127 °C.
As to `O=Cc1ncn2c1[C@@H]1CCCN1C(=O)c1c(Cl)cccc1-2`, the melting point fell in the range of 224 to 225 °C.
The same measure for `Nc1noc(CN2CCC[C@@H](OCc3cc(C(F)(F)F)cc(C(F)(F)F)c3)[C@H]2c2ccccc2)n1` (relative stereo): 138 to 139 °C.
The figure for `COc1cc(OC)c2c(=O)[nH]c(-c3ccc(CN4C(=O)CNC4=O)cc3)nc2c1` is 317 to 318 °C; for `CC1CC(=O)N(c2ccncc2)C1=O` (stereo not drawn) it is 119 to 120 °C; for `CC1(C)CCC(C)(C)c2cc3cc(-c4ccc(C(=O)O)cc4)ccc3cc21` it is 282 °C.
The figure for `CN1CC2Cc3ccc(Cl)cc3C(O)C2C1` (stereo not drawn) is 178 to 182 °C.
Turning to `O=C1NC(=O)C(Cc2ccc3cc(OCc4ccccc4F)ccc3c2)S1` (stereo not drawn), the melting point was 150 to 152 °C.
`CNc1nc2c(cc1NC(=O)N1CCN(c3cc(OC)cc(OC)c3)CC1)CCC2` registered a melting point of 148 to 150 °C.
For `C[C@H]1N(C(=O)c2ccc(C(F)(F)F)cc2)CC(F)O[C@@]1(Cn1cncn1)c1ccc(Cl)cc1Cl` (relative stereo), the melting point was in the range of 151 to 156 °C.
The same measure for `CCCCCCOc1ccc(C(=O)Nc2ccccc2Sc2ccccc2-c2nnn[nH]2)cc1`: 154 to 156 °C.
The figure for `Cc1cccc(C)c1NCC(N)=O` is 89 to 92 °C; for `CC1(C)CC(=NO)c2cc(-c3ccccc3)ccc2O1` it is 130 to 134 °C.
The same measure for `Cc1ccc(Sc2ccnc3sc(C(N)=O)cc23)cc1`: 280 to 282 °C; for `CNC(=O)C=C1CC2(CCCC2)c2ccccc21`: 178 °C; for `COC(=O)c1cc2cc(C)ccc2s1`: 78 to 79 °C.
As for `CCOC(=O)C=CC(=O)c1ccc(Oc2ccc(Cl)c(Cl)c2)cc1`, the melting point lay in the range of 115 to 117 °C.
The figure for `O=[N+]([O-])N=C1NCCN1Cc1cc(Br)no1` is 149 °C; for `O=C(Nc1ccccc1)c1ccc(Cn2cnc3ccccc32)cc1` it is 214 to 216 °C.
The figure for `COc1cccc2c1CC(N(CCCc1c[nH]c3ccc(F)cc13)CC1CCC1)CO2` (stereo not drawn) is 115 °C; for `Clc1ccc2c(c1)C(NC1=NCCS1)CCC2` (stereo not drawn) it is 164 to 166 °C.
The figure for `Cc1c(-c2ccc(F)cc2F)ncnc1C(F)F` is 54 to 55 °C; for `CC(Oc1cc2c(c(Cl)c1Cl)C(=O)C(C)(C1CCCC1)C2)C(=O)O` (stereo not drawn) it is 140 to 142 °C; for `CN(C(=O)COc1onc(C(F)(F)F)c1-c1ccccc1)c1ccccc1` it is 93 to 94 °C.
`O=C(Cc1ccc(Cl)cc1)c1ccc(Br)cc1` yielded a melting point of 128 to 129 °C.
`CCc1c(-c2ccc(O)cc2)c2ccc3ccc(COCCN4CCCCC4)c1n32` displayed a melting point of 68 to 75 °C.
In turn, `CCOCc1nc2c(N)nc3c(c2n1CC1(O)CCCC1)CCCC3` showed a melting point of 171 to 173 °C.
